Reference: patent US8304211B2, “Methods of screening molecular libraries and active molecules identified thereby” (priority 2002, dated 2012)
Starred links: 1 amine or outer side, 2 acyl side, 3 side chain; linkers in the order of their positions; H or OH if unused. Residues, ends and D or L forms follow the SMILES beside them. Groups on a side chain read outwards from the residue. *: point of attachment. Pteroyl = Nc1nc2ncc(CNc3ccc(C(=O)*)cc3)nc2c(=O)[nH]1; γGlu = O=C(O)[C@H](CCC(=O)[*:2])N[*:1]

Columns and labels:
[1] = target: T1, TrpR(T44M) (Escherichia coli, UniProt P0A881, T44M); details: arabinose induced expression, both in the presence and absence of tryptophan
Protocol: RNA was electophoresed through a 1% formaldehyde gel according to Sambrooke et al's Manual (1989). The gel was capillary blotted onto nitrocellulose filter paper using the standard protocols. RNA was UV crosslinked by 45 seconds of UV exposure. The filter was prehydridised for 3 hours at 65 C and then hybridised for 36 hours at 65° C. Hybridisation buffers were in accordance with Sambrook. The filter was dried at room temperature and placed in a phosphoimager cassette overnight. The filter was then scanned by Molecular Dynamics phosphoimager 400e (880 E. Argues Ave, Sunnyvale Calif. 94086).

[2] = target: TrpR (G85E) (Escherichia coli, UniProt P0A881, G85E); details: peptide expressed from pPep plasmid
Protocol: (§1) A λRTLF culture containing pTrpRep(WT), pTrpRep(T44M), pTrprG85E, and pTrpRep(None) were transformed with one of pPep(MGFLR) or pPep(MGFWR), and grown in both BTTRG and BTTRA media to an OD of 0.6 at wavelength 600 at 30° C. with shaking. Two hundred microliters of cultures assayed for β-galactosidase levels at wavelength 405 nm as described in Fenton et al (1998) BBRC 242(1):71-78.
(§2) λRTLF cultures containing one of pTrpRep(WT), pTrpRep(T44M), pTrprG85E, or pTrpRep(None) were grown in BTTRG media supplemented with one of following synthesized peptides MGFLR, MGFWR, MGRRW, FLR, FWR at a concentration of 1 mM. The cultures were grown to an OD of 0.6 at wavelength 600 at 30° C. with shaking. Two hundred microlitres of cultures assayed for -galactosidase levels at wavelength 405 as described in Fenton et al (1998) supra.

[3] = target: T1, TrpR(T44M); details: peptide expressed from pPep plasmid, arabinose induced
Protocol: as §1, §2
The cultures were grown to an OD of 0.6 at wavelength 600 at 30° C. with shaking.

[4] = test system: R273H/P309S p53 mutant in SW480.7 cells; test: RT-PCR analysis of mRNA level of p53 transactivated genes; type: cell-based, Homo sapiens (human); details: ligand transfected SW480.7 compared with empty pCEP4 transfected SW480.7, RT-PCR
Description: Total RNA was collected, from two wells of one ligand transfected SW480.7 plate and one pCEP4 transfected SW480.7 plate each day on day 0, day 1, and day 2 after transfection. Thus RNA samples were harvested as SW480.7/Ligand-0 day, SW480.7/Ligand-1 day, SW480.7/Ligand-2 day, SW480.7/pCEP4-0 day, SW480.7/pCEP4-1 day, SW480.7/pCEP4-2 day. Protocol for total RNA extraction by TRIZOL® Reagent was according to that given by Life Technology:
First-Strand cDNA Synthesis • 1. For each RNA sample, combine the following reagents in a sterile 0.2-ml reaction tube:
• 2. Mix and spin the tube briefly. • 3. Incubate the tube at 70° C. in a thermal cycler for 2 min. • 4. Spin the tube briefly to collect contents at the bottom. Keep tube at room temperature. • 5. Add the following to each reaction tube:
• 6. Gently vortex and spin the tubes briefly. • 7. Incubate the tubes at 42° C. for 1 hr in an air incubator or cycler. • 8. Add 40 μl TE buffer (10 mM Tris (pH7.6), 1 mM EDTA) to dilute the first-strand reaction product. • 9. Heat tubes at 72° C. for 7 min to inactivate reverse transcriptase. • 10. Samples can be stored at −20° C. for up to three months. cDNA Amplification by PCR • 1. Preheat the PCR thermal cycler to 95° C. • 2. For each reaction, 5 μl of diluted first-strand cDNA and 5 μl of deionized water are added to a labeled 0.2-ml reaction tube. • 3. Prepare a master mix for all reaction tubes, plus one additional tube. For each reaction:
• 4. Mix by vortexing and spin the tube briefly. • 5. Aliquot 40 μl of the PCR Master Mix into each tube from Step 2. • 6. Cap the tube, and place it in the preheated thermal cycler. • 7. PCR was carried out using the following cycling parameters:
• 8. Electrophoreses 5 μl of each PCR reaction alongside 0.1 μg of 1-kb DNA ladder on a 1.2% agarose/EtBr gel in 1× TBE buffer. Results

[5] = test system: U2-OS cells; test: Validation of selected peptide ligand: cell proliferation/death after transfection; type: cell-based, Homo sapiens (human); details: U2-OS (wild type p53), ligand expressed from pCEP4 plasmid, without puromycin selection
Protocol: (§3) Cells SW480.7, U-2OS, and Sa-os2 were transfected with peptide ligand and pCEP4 parallelly using the calcium phosphate method.
(§4) After transfection, cells were cultured without drug selection and diluted at the ratio of 1:100 every five days. Cell proliferation status was closely observed until ligand transfected SW480.7 cells died out. Life staining with 0.4% trypan blue was applied to determine the death of the cells. Dead cells can not exclude the dye thus were stained blue. Living cells can pump the dye outside thus were not stained.

[6] = test system: Saos-2 cells; test: as above; type: cell-based, Homo sapiens (human); details: Saos-2 (p53 null), ligand expressed from pCEP4 plasmid, without puromycin selection
Protocol: as §3, §4

[7] = test system: SW480.7 cells; test: as above; type: cell-based, Homo sapiens (human); details: SW480.7, ligand expressed from pCEP4 plasmid, 15 days without puromycin selection
Protocol: as §3, §4

[8] = test system: SW480 cells; test: Dose response in SW480; type: cell-based, human; details: 2 days
Protocol: 1. Dissolve the drug at a concentration of 10 mg/ml in PBS.
3. A confluent flask of SW480 cells was treated with trypsin and the cells were suspended in growth media at concentrations of 5×10^5 cells/ml.
5. Incubate at 37° C., 5% CO2 for 2 days.

[9] = test system: normal human lymphocytes; details: 3.125-800 g/ml as printed, 2 days
Protocol: Growth media used is the RPMI-1640 (Gibco Laboratories, Grand Island, N.Y.) supplemented with 25 mM Hepes buffer, 10% FBS serum (Gibco), 100 U/ml penicillin/streptomycin, 50 μg/ml gentamycin, 2 mM L-glutamin, 1× nonessential amino acids (Gibco)
In a 50-ml centrifugation tube, add 10 ml of Lymphoprep™. 2. Mix 15 ml blood and 15 ml HBSS-buffer (containing heparin). 3. Carefully add the blood mixture from step 2, to the tubes containing Lymphoprep™ without mixing the phases. 4. Centrifuge at 450 g at room temperature for 45 min. 5. Isolate the Buffy-coat layer containing the PBMC (peripheral blood mononuclear cells), and place in a fresh tube. 6. Add 7 ml HBSS-buffer to the tube to wash the PBMC. 7. Centrifuge 5-10 min 600 g. 8. Remove the supernatant and wash the PBMC again with a total of 10-ml HBSS-. 9. Suspend the cells in complete media RPMI 1640. Incubate the cells in a small culture flask for 1 hour at 37° C. 10. Remove the unattached cells (lymphocytes) from the small culture flask and dilute the cells to a concentration of 5×10^5 cell/ml. 11. Dissolve drug at 10 mg/ml in PBS. 12. Add 100 μl of growth media to the rest of the wells. 13. Prepare 100 l of a series of concentration of 1600, 800, 400, 200, 100, 50, 25, 12.5, 6.25 μg/ml were made. Triplicate wells were used for each concentration as well as the control (0.0 g/ml), for each of Drug1, 2 and 3. 14. […]

In the case of MGFLR, the “Transcription of LacZ” value [1] is reported as “repressed”, the “Transcription of PheS” value [1] is reported as “repressed” and the “Restoration of TrpR mutant G85E function (β-galactosidase activity)” value [2] is reported as “did not restore”. The “Restoration of TrpR(T44M) function (β-galactosidase activity)” value [3] was “restored TrpR(T44M) function”.

For “MGWCT (peptide derivative) [Drug 3, Penta-peptide, no folate conjugation]”, the “mRNA level of 14-3-3σ” value [4] was “much higher”, the “mRNA level of CD95” value [4] was “much higher” and the “mRNA level of p21 (WAF1/Cip1)” value [4] was “much higher”. The “Cell status after transfecting the ligand” value (shortened to “Cell status”) [5] was “growing well”, the “Cell status” value [6] was “growing well” and the “Cell status” value [7] was “could no longer attach to the wall and died”.

In the case of CSCC[C@H](N)C(=O)NCC(=O)N[C@@H](Cc1c[nH]c2ccccc12)C(=O)N[C@@H](CS)C(=O)N[C@H](C(=O)N[C@@H](CCCCNC(=O)CC[C@H](NC(=O)c1ccc(NCc2cnc3nc(N)[nH]c(=O)c3n2)cc1)C(=O)O)C(=O)O)[C@@H](C)O [Drug 2, MGWCT-K-Folic] (H-MGWCTK([γGlu-Pteroyl])-OH; N-terminus and C-terminus assumed), the “Activity on metastatic cancer cells SW480 (number of surviving cells)” value ([8]; 3.125-800 μg/ml) is reported as “best results”, the “IC50 as molar amount per well” value ([8]; SW480 cells) is reported as 0.0257 μmol/well and the “Effect on normal human lymphocytes (number of surviving cells)” value [9] is reported as “no effect”.

For MGFWR, the “Restoration of TrpR mutant G85E function (β-galactosidase activity)” value [2] was “did not restore” and the “Restoration of TrpR(T44M) function (β-galactosidase activity)” value [3] was “restored TrpR(T44M) function”.
